Data reported in the supplement of paper PMC10307832.

Key:
Experiment in all cases: relative viability (nuclei count vs DMSO), 5 days (fraction); higher = more cells survive
SW 900 = system: SW 900
Outline: (§1)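 Values are medians from duplicate plates. Each reflects relative viability, defined as the nuclei count of treated wells over that of vehicle wells. Lung cancer cell lines in 1536-well plates were pin-tool dosed one day after seeding with one drug alone or with a fixed anchor-drug dose plus five library-drug doses (not always all listed) in √10 steps, then fixed, stained and imaged at 4× after 5 days.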

NCI-H2342 = system: NCI-H2342
Outline: as §1

NCI-H1563 = system: NCI-H1563
Outline: as §1

NCI-H522 = system: NCI-H522
Outline: as §1

NCI-H1623 = system: NCI-H1623
Outline: as §1

EBC-1 = system: EBC-1
Outline: as §1

NCI-H1703 = system: NCI-H1703
Outline: as §1

Calu-6 = system: Calu-6
Outline: as §1

IA-LM = system: IA-LM
Outline: as §1

NCI-H1299 = system: NCI-H1299
Outline: as §1

A549 = system: A549
Outline: as §1

Cc1cnc(-c2cnc(NCCNc3ccc(C#N)cn3)nc2-c2ccc(Cl)cc2Cl)[nH]1 + CCNC(=O)c1noc(-c2cc(C(C)C)c(O)cc2O)c1-c1ccc(CN2CCOCC2)cc1 [Luminespib] (partner 0.01 µM)
relative viability (SW 900; first compound 0.08 µM): 0.196 | relative viability (SW 900; first compound 0.253 µM): 0.168 | relative viability (SW 900; first compound 0.8 µM): 0.206 | relative viability (SW 900; first compound 2.53 µM): 0.203 | relative viability (NCI-H2342; first compound 0.08 µM): 0.825 | relative viability (NCI-H2342; first compound 0.253 µM): 0.654 | relative viability (NCI-H2342; first compound 0.8 µM): 0.694 | relative viability (NCI-H2342; first compound 2.53 µM): 0.584 | relative viability (NCI-H1563; first compound 0.08 µM): 0.473 | relative viability (NCI-H1563; first compound 0.253 µM): 0.535 | relative viability (NCI-H1563; first compound 0.8 µM): 0.499 | relative viability (NCI-H1563; first compound 2.53 µM): 0.439 | relative viability (NCI-H522; first compound 0.08 µM): 1.14 | relative viability (NCI-H522; first compound 0.253 µM): 1.02 | relative viability (NCI-H522; first compound 0.8 µM): 0.99 | relative viability (NCI-H522; first compound 2.53 µM): 1.31 | relative viability (NCI-H1623; first compound 0.08 µM): 0.594 | relative viability (NCI-H1623; first compound 0.253 µM): 0.622 | relative viability (NCI-H1623; first compound 0.8 µM): 0.542 | relative viability (NCI-H1623; first compound 2.53 µM): 0.507

Cc1cnc(-c2cnc(NCCNc3ccc(C#N)cn3)nc2-c2ccc(Cl)cc2Cl)[nH]1 + COc1cc2c(Oc3ccc(NC(=O)C4(C(=O)Nc5ccc(F)cc5)CC4)cc3F)ccnc2cc1OCCCN1CCOCC1 [Foretinib] (partner 0.25 µM)
relative viability (EBC-1; first compound 0.08 µM): 0.0986 | relative viability (EBC-1; first compound 0.253 µM): 0.105 | relative viability (EBC-1; first compound 0.8 µM): 0.102 | relative viability (EBC-1; first compound 2.53 µM): 0.112 | relative viability (SW 900; first compound 0.08 µM): 0.781 | relative viability (SW 900; first compound 0.253 µM): 0.78 | relative viability (SW 900; first compound 0.8 µM): 0.789 | relative viability (SW 900; first compound 2.53 µM): 0.717 | relative viability (NCI-H2342; first compound 0.08 µM): 0.974 | relative viability (NCI-H2342; first compound 0.253 µM): 0.903 | relative viability (NCI-H2342; first compound 0.8 µM): 1.03 | relative viability (NCI-H2342; first compound 2.53 µM): 1.07 | relative viability (NCI-H1703; first compound 0.08 µM): 0.333 | relative viability (NCI-H1703; first compound 0.253 µM): 0.383 | relative viability (NCI-H1703; first compound 0.8 µM): 0.362 | relative viability (NCI-H1703; first compound 2.53 µM): 0.433 | relative viability (Calu-6; first compound 0.08 µM): 0.906 | relative viability (Calu-6; first compound 0.253 µM): 0.826 | relative viability (Calu-6; first compound 0.8 µM): 0.874 | relative viability (Calu-6; first compound 2.53 µM): 0.784 | relative viability (NCI-H1563; first compound 0.08 µM): 0.925 | relative viability (NCI-H1563; first compound 0.253 µM): 0.885 | relative viability (NCI-H1563; first compound 0.8 µM): 0.951 | relative viability (NCI-H1563; first compound 2.53 µM): 1.01 | relative viability (IA-LM; first compound 0.08 µM): 0.95 | relative viability (IA-LM; first compound 0.253 µM): 1.09 | relative viability (IA-LM; first compound 0.8 µM): 1.44 | relative viability (IA-LM; first compound 2.53 µM): 0.988 | relative viability (NCI-H1299; first compound 0.08 µM): 1.11 | relative viability (NCI-H1299; first compound 0.253 µM): 1.05 | relative viability (NCI-H1299; first compound 0.8 µM): 1.09 | relative viability (NCI-H1299; first compound 2.53 µM): 1.06 | relative viability (NCI-H1623; first compound 0.08 µM): 0.785 | relative viability (NCI-H1623; first compound 0.253 µM): 0.828 | relative viability (NCI-H1623; first compound 0.8 µM): 0.821 | relative viability (NCI-H1623; first compound 2.53 µM): 0.849 | relative viability (A549; first compound 0.08 µM): 0.984 | relative viability (A549; first compound 0.253 µM): 0.963 | relative viability (A549; first compound 0.8 µM): 1.02 | relative viability (A549; first compound 2.53 µM): 0.451

Cc1cnc(-c2cnc(NCCNc3ccc(C#N)cn3)nc2-c2ccc(Cl)cc2Cl)[nH]1 + Cc1nc(Nc2ncc(C(=O)Nc3c(C)cccc3Cl)s2)cc(N2CCN(CCO)CC2)n1 [Dasatinib] (partner 0.075 µM)
relative viability (SW 900; first compound 0.08 µM): 0.64 | relative viability (SW 900; first compound 0.253 µM): 0.425 | relative viability (SW 900; first compound 0.8 µM): 0.343 | relative viability (SW 900; first compound 2.53 µM): 0.404 | relative viability (NCI-H2342; first compound 0.08 µM): 0.325 | relative viability (NCI-H2342; first compound 0.253 µM): 0.321 | relative viability (NCI-H2342; first compound 0.8 µM): 0.301 | relative viability (NCI-H2342; first compound 2.53 µM): 0.278 | relative viability (NCI-H1563; first compound 0.08 µM): 0.439 | relative viability (NCI-H1563; first compound 0.253 µM): 0.471 | relative viability (NCI-H1563; first compound 0.8 µM): 0.51 | relative viability (NCI-H1563; first compound 2.53 µM): 0.429 | relative viability (NCI-H522; first compound 0.08 µM): 0.845 | relative viability (NCI-H522; first compound 0.253 µM): 0.996 | relative viability (NCI-H522; first compound 0.8 µM): 0.737 | relative viability (NCI-H522; first compound 2.53 µM): 0.844 | relative viability (NCI-H1623; first compound 0.08 µM): 0.5 | relative viability (NCI-H1623; first compound 0.253 µM): 0.536 | relative viability (NCI-H1623; first compound 0.8 µM): 0.472 | relative viability (NCI-H1623; first compound 2.53 µM): 0.516

Cc1cnc(-c2cnc(NCCNc3ccc(C#N)cn3)nc2-c2ccc(Cl)cc2Cl)[nH]1 + N=C(N)NC(=N)NCCc1ccccc1 [Phenformin] (partner 250 µM)
relative viability (SW 900; first compound 0.08 µM): 0.771 | relative viability (SW 900; first compound 0.253 µM): 0.588 | relative viability (SW 900; first compound 0.8 µM): 0.644 | relative viability (SW 900; first compound 2.53 µM): 0.391 | relative viability (NCI-H2342; first compound 0.08 µM): 0.622 | relative viability (NCI-H2342; first compound 0.8 µM): 0.635 | relative viability (NCI-H2342; first compound 2.53 µM): 0.577 | relative viability (NCI-H1563; first compound 0.08 µM): 0.649 | relative viability (NCI-H1563; first compound 0.253 µM): 0.647 | relative viability (NCI-H1563; first compound 0.8 µM): 0.636 | relative viability (NCI-H1563; first compound 2.53 µM): 0.635 | relative viability (NCI-H522; first compound 0.08 µM): 0.639 | relative viability (NCI-H522; first compound 0.253 µM): 0.707 | relative viability (NCI-H522; first compound 0.8 µM): 0.65 | relative viability (NCI-H522; first compound 2.53 µM): 0.666 | relative viability (NCI-H1623; first compound 0.08 µM): 0.527 | relative viability (NCI-H1623; first compound 0.253 µM): 0.503 | relative viability (NCI-H1623; first compound 0.8 µM): 0.581 | relative viability (NCI-H1623; first compound 2.53 µM): 0.589 | relative viability (A549; first compound 0.08 µM): 0.168 | relative viability (A549; first compound 0.253 µM): 0.154 | relative viability (A549; first compound 0.8 µM): 0.151 | relative viability (A549; first compound 2.53 µM): 0.154
